These results are taken from patent US20240050585A1, “B7-H4-TARGETED ANTIBODY-DRUG CONJUGATES FOR THE TREATMENT OF CANCER” (priority 2022, published 2024).

In data set [1] the test system is OV2423 patient derived ovarian cancer. The data set is described as follows: Tumor growth response in OV2423 patient derived ovarian cancer xenograft mouse model. Particulars: 4.54/0.150 mg/kg (antibody/payload) intravenously on day 1; Day 22; female BALB/c nude mice. How it is done: Female BALB/c nude mice were implanted subcutaneously with OV2423 patient derived ovarian cancer tumor fragments (˜2-3 mm^3 per mouse). Animals were randomized into treatment groups when tumor volumes were between 101-230 mm^3 (mean=155mm^3/group) (n=8/group). Vehicle, palivizumab isotype control conjugate (prepared as described in US Patent Application No. 2022/0233707A1, 4.54/0.150 mg/kg) and XMT-1660 (4.61/0.150 mg/kg, DAR 6) were dosed intravenously on day 1 (all doses are given by antibody/payload).
A general note: Xenograft models place foreign cells or tissue in a host animal.

Data set [2] deals with mBR9013 syngeneic breast cancer. The data set is described as follows: Tumor growth response in mBR9013 syngeneic breast cancer mouse model. Particulars: for TGI (tumor volume compared to vehicle control): day 15, female FVB/NJ mice. How it is done:
Female FVB/NJ mice were implanted subcutaneously with mBR9013 tumor fragments (2-3 mm^3). Animals were randomized into treatment groups when tumor volumes were between 96-277 mm^3 (mean=148 mm^3/group) (n=8/group). […] Vehicle, isotype control conjugate and XMT-1660 were dosed intravenously.

As for palivizumab isotype control conjugate, the “TGI (tumor volume compared to vehicle control)” value is 24.8% in data set [1], −7.91% in data set [2] (1.51/0.050 mg/kg (antibody/payload) intravenously on day 1) and 32.02% in data set [2] (4.54/0.150 mg/kg (antibody/payload) intravenously on day 1). For the same substance, the “body weight loss or clinical observations” value in data set [2] (mouse, in vivo) is reported as “No significant body weight loss or clinical observations”.
